According to PubChem BioAssay AID179 (DTP/NCI, 2004):
pEC50, pIC50: −log10 of the molar value. Active and inactive are the calls of the source.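 How the source made its calls: active means compounds giving half or more protection of infected cells from virus-caused growth loss, again on retest; inactive means the rest.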 Where a SMILES comes first, the peptide text is derived from it. [ ]: non-standard residue; d: D form. The star is where a group is joined. ξ: configuration not given here. Myristoyl = CCCCCCCCCCCCCC(=O)*; ξF = NC(Cc1ccccc1)C(=O)O; Cbz = O=C(OCc1ccccc1)*; Aib = CC(C)(N)C(=O)O

Test system: CEM cells HIV-1 protection, formazan growth assay
Test: NCI AIDS Antiviral Assay
Settings: for pIC50: measured here: growth of uninfected CEM cells
How it was run: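 Human CEM cells, uninfected and HIV-1-infected, exposed to five drug concentrations; growth measured by soluble formazan assay and scored as percent protection from infection, with protecting compounds retested.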

Row | Structure (SMILES) | pEC50 | pIC50 | outcome
1 | O=C(CCCCCCCCC(=O)OCCCn1cc(C(=O)NC(=O)OCc2ccccc2)c(=O)[nH]c1=O)OCCCn1cc(C(=O)NC(=O)OCc2ccccc2)c(=O)[nH]c1=O | < 4.80 | < 4.80 | 
2 | CCN1CCC(O)(c2ccc(OC)cc2)C(C(=O)c2ccc(OC)cc2)C1 (configuration not stated) | < 3.26 | 4.84 | 
3 | COc1cccc2c1C(=N)c1c(O)c3c(c(O)c1C2=O)C[C@@](O)(C(C)=O)C[C@@H]3OC1CC(N)C(O)C(C)O1 (some centres not stated) | < 6.70 | 8.20 | 
4 | CCOC(=O)C1=NN(c2ccccc2)C(=O)/C1=C\n1ccc(=O)[nH]c1=S |  |  | inactive
5 | Cc1ccc2oc(=O)c(C(=O)Nc3nc(C45CC6CC(CC(C6)C4)C5)cs3)cc2c1 | < 4.00 | < 4.00 | 
6 | O=C(Cc1nc2ccccc2s1)C(=O)Nc1ccccc1C(F)(F)F | < 4.15 | < 4.15 | 
7 | CC1(C)Oc2ccccc2OC1O (configuration not stated) | < 3.70 | < 3.70 | 
8 | NS(=O)(=O)c1ccc(NC(=O)C2C(=O)C(=O)N(c3ccc(S(N)(=O)=O)cc3)C2=O)cc1 (configuration not stated) |  |  | inactive
9 | O=S(=O)(O)CCS | < 3.70 | < 3.70 | 
10 | O=[N+]([O-])c1ccccc1/C=C/c1ccccn1 | < 4.78 | < 4.78 | 
11 | COC1(OC)CC2C(=O)N(Cc3ccccc3)C1CC2S(=O)(=O)c1ccccc1 (configuration not stated) |  |  | inactive
12 | Nc1nc(NCCCO)cc(=O)[nH]1 | < 3.70 | < 3.70 | 
13 | COC(=O)c1ccc(CN2CCc3c([nH]c4ccccc34)C2CO)o1 (configuration not stated) | < 3.83 | 4.28 | 
14 | NC(N)=NS(=O)(=O)c1ccc(Nc2c3ccccc3nc3c(C(=O)N4CCN(CCO)CC4)ccc(Cl)c23)cc1 | < 4.42 | < 4.42 | 
15 | Nc1c(N2CCOCC2)c(=O)nc2[nH]/c(=C\c3ccccc3O)c(=O)n12 | < 3.70 | 4.01 | 
16 | Cc1cc(C)nc(NS(=O)(=O)c2ccc(Nc3c4ccccc4nc4c(C(=O)Nc5ccc(S(N)(=O)=O)cc5)cccc34)cc2)n1 | < 3.84 | < 3.84 | 
17 | COP(=O)(OC)OC1C(=O)NC(=O)NC1=O | < 3.70 | < 3.70 | 
18 | Cn1c(=O)c2c(=O)cc(N)[nH]c2n(C)c1=O |  |  | inactive
19 | CNc1ncc2nc(C)c(=O)n(C)c2n1 | < 3.70 | < 3.70 | 
20 | O=C(N/N=C/c1ccco1)c1ccc(OCc2nc3ccccc3[nH]2)cc1 | < 3.70 | 4.08 | 
21 | COC(=O)CNC(=O)CNC(=O)CSc1nnc(COc2ccc(Cl)cc2)n1-c1ccccc1 | < 3.70 | 4.51 | 

Row | Structure (SMILES) | pEC50 | pIC50 | outcome
22 | C[C@H](COCP(=O)(O)O)n1cnc2c(N)ncnc21 | < 3.70 | < 3.70 | 
23 | O=C(CCNC(=O)OCc1ccccc1)OCCCNC(=O)OCc1ccccc1 | < 3.70 | < 3.70 | 
24 | CCN1CCC(O)(/C=C/c2ccc(OC)cc2)C(C(=O)/C=C/c2ccc(OC)cc2)C1 (configuration not stated) | < 3.32 | < 3.32 | 
25 | Cc1n[nH]c(=S)n1NC=O | < 3.70 | < 3.70 | 
26 | COc1ccc(NCn2nc(CCCCCCCCc3nn(CNc4ccc(OC)cc4)c(=S)o3)oc2=S)cc1 | < 3.70 | 3.80 | 
27 | O=c1[nH]c2cc([N+](=O)[O-])ccc2nc1/C(=N/Nc1ccccc1)C(O)c1ccccc1Cl (configuration not stated) | < 3.44 | 3.45 | 
28 | Fc1ccc(C2NC(c3ccc(Cl)cc3)c3cccn3-c3sccc32)cc1 (configuration not stated) | < 4.00 | 4.10 | 
29 | O=C(CNC(c1ccccc1)(c1ccccc1)c1ccccc1)NC1CCCCC1NC(=O)CNC(c1ccccc1)(c1ccccc1)c1ccccc1 (configuration not stated) | < 3.70 | < 3.70 | 
30 | NS(=O)(=O)c1ccc(NC(=S)/N=C\C(C(=O)c2ccccc2)=C(\O)c2ccccc2)cc1 | < 3.70 | 3.98 | 
31 | Cc1ccc(S(=O)(=O)Sc2nnnn2C)cc1 | < 3.60 | 4.27 | 
32 | O=c1cc(O)c2ccc(O)cc2o1 | < 4.39 | < 4.39 | 
33 | Clc1ccc(CSc2ccc3nncc(SCc4ccc(Cl)cc4)c3c2)cc1 | < 4.22 | < 4.22 | 
34 | CCCCCCCC(=O)c1ccc(O)c(C(=O)Nc2ccc(C(F)(F)F)cc2)c1 | < 4.48 | 5.30 | 
35 | CCOC(=O)C1(C/C=C\CBr)CCCCCCCCCCC1=O (configuration not stated) | < 3.70 | 6.03 | 
36 | O=C1CCC(C(=O)O)C2=C1CCCC2 (configuration not stated) |  |  | inactive
37 | CC(C)(C)C(=O)[O-].N.N.N.N.N.[Co+3].[O-][Cl+3]([O-])([O-])[O-] |  |  | inactive
38 | [N-]=[N+]=NS(=O)(=O)c1cccc([N+](=O)[O-])c1 |  |  | inactive
39 | Cn1c(=O)oc(=O)c2ccccc21 |  |  | inactive
40 | COc1ccc(/C=C2\CCC(C)C3=C2N=c2s/c(=C/c4cccc(Br)c4)c(=O)n2C3c2ccc(OC)c(OC)c2)cc1OC (configuration not stated) | < 4.30 | < 4.30 | 
41 | Cc1ccc(C(=O)C2CC3(CCC2(O)c2ccc(C)cc2)CC(=O)Nc2ccccc2C3=O)cc1 (configuration not stated) | < 3.70 | 4.05 | 
42 | CCOP(=S)(Nc1cccc(C(F)(F)F)c1)OCC | < 3.70 | 3.78 | 

Row | Structure (SMILES) | pEC50 | pIC50 | outcome
43 | COc1ccc(-c2c3c(nc4nc(SCC(=O)c5ccc(Br)cc5)nc(N)c24)CCCC3)cc1OC | < 3.70 | 3.82 | 
44 | COC1(OC)/C(=C(\N)C=O)NC(C)(C)N1O |  |  | inactive
45 | Cc1ccc(NC(=O)CC/C(CC(=O)c2ccc(Cl)cc2)=N\NC(=O)C(=O)NN)cc1C | < 5.08 | < 5.08 | 
46 | O=C(O)C(=O)CC(=O)c1ccc(Br)cc1 | < 3.70 |  | 
47 | CC(C)(C)c1cc(CCC(=O)Nc2ccccc2[N+](=O)[O-])cc(NC#N)n1 |  |  | inactive
48 | CCC1=C(C)c2cc3[n-]c(cc4nc(cc5[n-]c(cc1n2)c(C)c5CCC(=O)OC)C(CCC(=O)OC)=C4C)c(C)c3CC.[Cu+2] |  |  | inactive
49 | CCCC(=O)Sc1ccccc1C(=O)Nc1ccc(S(=O)(=O)NC(C)=O)cc1 | 4.55 | 3.95 | 
50 | Cn1c(=O)c2c(n(C)c1=O)n1c(SCc3ccccc3)nnc1n2C | < 3.70 | 3.74 | 
51 | COC1=C2CC(C)CC(OC)C(O)C(C)/C=C(\C)C(OC(N)=O)C(OC)/C=C\C=C(/C)C(=O)NC(=C(/C=N/N3CCCCC3)C1=O)C2=O (configuration not stated) | < 3.70 | 5.41 | 
52 | CCOC(=O)c1ncn(CCc2ccc(Cl)cc2)c1C | < 3.70 | < 4.00 | 
53 | CC1=C(CCc2ccoc2)[C@@]2(C)CCCC(C)(C)C2C(=O)[C@@H]1O[C@H]1C(=O)C2C(C)(C)CCC[C@]2(C)[C@](O)(CCc2ccoc2)C1C (some centres not stated) | < 5.37 | < 5.37 | 
54 | CCCCOC(=O)C(=O)/C(=C/N1C(=O)/C(=C/C(C)=C/c2ccccc2)SC1=S)C(=O)C=C(C)C | < 4.00 | 4.83 | 
55 | Cc1ccc(NCCN(C)C)c2c(=O)c3cc(O)ccc3oc12 | < 3.81 | 5.99 | 
56 | COC1=C(C)C(=O)c2nc(Cl)ccc2C1=O |  |  | inactive
57 | CC(C)(C)C1=Cc2cc3cc(C(C)(C)C)[nH]c(=O)c3cc2S(=O)(=O)N1 | < 5.12 | < 5.12 | 
58 | CC(C)C(=O)Nc1nc2nc[nH]c2c(=O)[nH]1 | < 4.07 | < 4.07 | 
59 | C#CC1(O)c2ccccc2C(=O)c2ccccc21 |  |  | inactive
60 | O=C(O)C1C2CC(C1C(=O)O)C1C2N1S(=O)(=O)c1ccccc1 (configuration not stated) | < 3.13 | < 3.13 | 
61 | Cc1ccc(-c2csc(=Nc3ccccc3)n2NC(=O)c2ccncc2)cc1 | < 3.70 | 4.64 | 
62 | CC(=O)OCC(OC(C)=O)C(OC(C)=O)C(OC(C)=O)C(=O)CNn1c(-c2ccccc2Cl)nc2ccccc2c1=O (configuration not stated) |  |  | inactive
63 | Cc1ccc(-c2nc3cc(N4CCN(C)CC4)c(F)cc3[nH]2)cc1 | < 3.70 | 4.58 | 

Row | Structure (SMILES) | pEC50 | pIC50 | outcome
64 | C=CCN(CCN(CC=C)S(=O)(=O)c1ccc(C)cc1)S(=O)(=O)c1ccc(C)cc1 | < 4.65 | < 4.65 | 
65 | COc1cc(C)cc2ccc(Br)c(O)c12 | < 3.70 | < 3.70 | 
66 | C[C@@H](NC(=O)[C@@H]1C[C@]1(C)CO)c1cccc2ccccc12 | < 3.70 | < 3.70 | 
67 | CCOC(=O)CNC(=O)C(Cc1ccccc1)NC(=O)C(C)(C)NC(=O)OCc1ccccc1 (configuration not stated) (Cbz-[Aib]-[ξF]-Gly-OEt) | < 3.70 | 4.02 | 
68 | O=C1OC2CCCC[C@@H]2C2C[C@]34CCCCC3[C@@H](C(=O)O4)C12 (some centres not stated) | < 4.63 | < 4.63 | 
69 | CC(C)=CCC[C@@H](C)C1=C(N)C(O)=C(C)C(=O)C1=O | < 3.70 | 4.87 | 
70 | Cc1cc(C)nc(NS(=O)(=O)c2ccc(Nc3c4ccccc4nc4c(C(=O)NC(CO)(CO)CO)cccc34)cc2)n1 | < 3.70 | 5.03 | 
71 | CC(C)c1cccc(C(C)C)c1NC(=S)N=Nc1cc(C(C)(C)C)c(O)c(C(C)(C)C)c1 | < 5.24 | < 5.24 | 
72 | CC(=O)NNc1nc(C)c(C(=O)NNC(=O)C(=O)Nc2ccc([N+](=O)[O-])cc2[N+](=O)[O-])s1 | < 3.69 | 4.42 | 
73 | CNC(=O)c1cn(C2OC(CO)C(O)C2O)c2ncnc(N)c12 (configuration not stated) | < 5.70 | 5.92 | 
74 | CCCCCCCCCCCCCC(=O)NCC(=O)NC(CO)C(=O)NC(CO)C(=O)NC(CCCCN)C(=O)NC(CO)C(=O)NC(CCCCN)C(=O)N1CCCC1C(=O)NC(CCCCN)C(=O)NC(CC(=O)O)C(=O)N1CCCC1C(=O)NC(CO)C(=O)NC(CCC(N)=O)C(=O)NC(CCCNC(=N)N)C(=O)NC(CCCNC(=N)N)C(=O)NC(CCCNC(=N)N)C(=O)NC(Cc1ccc(O)cc1)C(N)=O (configuration not stated) (Myristoyl-GSSKSKPKDPSQRRRY-NH2; configuration not given here) | < 3.92 | < 3.92 | 
75 | CC1=C2CN(C(=O)OCC(C)C)CCC2C2=C(C(=O)c3ccccc3C2=O)C1C (configuration not stated) | < 4.00 | < 4.00 | 
76 | COc1ccc2nc3c([N+](=O)[O-])ccc(NCCN(C)C)c3c(NCCN(C)C)c2c1 | < 3.70 | 5.97 | 
77 | CC1c2ccccc2NC(=O)N1N1CCOCC1 (configuration not stated) | < 3.70 | < 3.70 | 
78 | O=C(O)c1c(O)ccc(N=Nc2ccc(CCc3ccc(N=Nc4ccc(O)c(C(=O)O)c4O)cc3S(=O)(=O)O)c(S(=O)(=O)O)c2)c1O | < 3.79 | 4.01 | 
79 | [O-][N+]1=NC(c2ccccc2)=C1c1ccccc1 | < 4.30 | < 4.30 | 
80 | Cc1cccc(C(C)O)n1 (configuration not stated) | < 3.70 | < 3.70 | 
81 | O=[N+]([O-])c1ccc2[nH]c(=S)n(/C=C(/c3ccc(Cl)cc3Cl)S(=O)(=O)Cc3ccc(Cl)cc3Cl)c2c1 | < 3.70 | 3.77 | 
